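Method: 48-hour compound exposure of cells in 96-well plates, five concentrations, linear interpolation of endpoints. TGI marks complete inhibition of growth.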
Tests used:
Test in all cases: NCI-60 cell line screen, 48 h
HOP-92 NSCLC = system: HOP-92 NSCLC
HOP-62 NSCLC = system: HOP-62 NSCLC
MALME-3M melanoma = system: MALME-3M melanoma
SK-MEL-5 melanoma = system: SK-MEL-5 melanoma
OVCAR-5 ovarian = system: OVCAR-5 ovarian
SF-539 CNS = system: SF-539 CNS
TK-10 renal = system: TK-10 renal
MDA-MB-231 breast = system: MDA-MB-231 breast
MDA-N = system: MDA-N
HT29 colon = system: HT29 colon
CAKI-1 renal = system: CAKI-1 renal
ACHN renal = system: ACHN renal
RXF 393 renal = system: RXF 393 renal
EKVX NSCLC = system: EKVX NSCLC
K-562 leukemia = system: K-562 leukemia
SK-MEL-28 melanoma = system: SK-MEL-28 melanoma
SF-268 CNS = system: SF-268 CNS
SF-295 CNS = system: SF-295 CNS
A498 renal = system: A498 renal
OVCAR-4 ovarian = system: OVCAR-4 ovarian
BT-549 breast = system: BT-549 breast
NCI/ADR-RES ovarian = system: NCI/ADR-RES ovarian
OVCAR-8 ovarian = system: OVCAR-8 ovarian
HCT-15 colon = system: HCT-15 colon
NCI-H460 lung = system: NCI-H460 lung
HCC-2998 colon = system: HCC-2998 colon
HCT-116 colon = system: HCT-116 colon
SW-620 colon = system: SW-620 colon
MDA-MB-435 = system: MDA-MB-435
IGROV1 ovarian = system: IGROV1 ovarian
786-0 renal = system: 786-0 renal
SK-MEL-2 melanoma = system: SK-MEL-2 melanoma
OVCAR-3 ovarian = system: OVCAR-3 ovarian
SK-OV-3 ovarian = system: SK-OV-3 ovarian
NCI-H522 lung = system: NCI-H522 lung
MOLT-4 leukemia = system: MOLT-4 leukemia
NCI-H226 lung = system: NCI-H226 lung
T-47D breast = system: T-47D breast
U251 CNS = system: U251 CNS
COLO 205 colon = system: COLO 205 colon
DU-145 prostate = system: DU-145 prostate
M14 melanoma = system: M14 melanoma
SNB-75 CNS = system: SNB-75 CNS
NCI-H23 lung = system: NCI-H23 lung
A549 NSCLC = system: A549 NSCLC
UO-31 renal = system: UO-31 renal
MCF7 breast = system: MCF7 breast
PC-3 prostate = system: PC-3 prostate
HS 578T breast = system: HS 578T breast
RPMI-8226 leukemia = system: RPMI-8226 leukemia
HL-60(TB) leukemia = system: HL-60(TB) leukemia
SN12C renal = system: SN12C renal
UACC-257 melanoma = system: UACC-257 melanoma
SNB-19 CNS = system: SNB-19 CNS
LOX IMVI melanoma = system: LOX IMVI melanoma
SR leukemia = system: SR leukemia
KM12 colon = system: KM12 colon
CCRF-CEM leukemia = system: CCRF-CEM leukemia

Measured: TGI

COC(=O)/C(C#N)=C(\Nc1ccccc1)N1CCOCC1
> 100 µM: HOP-92 NSCLC | HOP-62 NSCLC | MALME-3M melanoma | SK-MEL-5 melanoma | OVCAR-5 ovarian | SF-539 CNS | TK-10 renal | MDA-MB-231 breast | MDA-N | HT29 colon | CAKI-1 renal | ACHN renal | RXF 393 renal | EKVX NSCLC | K-562 leukemia | SK-MEL-28 melanoma | SF-268 CNS | SF-295 CNS | A498 renal | OVCAR-4 ovarian | BT-549 breast | NCI/ADR-RES ovarian | OVCAR-8 ovarian | HCT-15 colon | NCI-H460 lung | HCC-2998 colon | HCT-116 colon | SW-620 colon | MDA-MB-435 | IGROV1 ovarian | 786-0 renal | SK-MEL-2 melanoma | OVCAR-3 ovarian | SK-OV-3 ovarian | NCI-H522 lung | MOLT-4 leukemia | NCI-H226 lung | T-47D breast | U251 CNS | COLO 205 colon | DU-145 prostate | M14 melanoma | SNB-75 CNS | NCI-H23 lung | A549 NSCLC | UO-31 renal | MCF7 breast | PC-3 prostate | HS 578T breast | RPMI-8226 leukemia | HL-60(TB) leukemia | SN12C renal | UACC-257 melanoma | SNB-19 CNS | LOX IMVI melanoma | SR leukemia

Cc1nc(N)c(N2CCN(C(=O)O)CC2)c(=O)[nH]1
> 100 µM: HOP-92 NSCLC | HOP-62 NSCLC | MALME-3M melanoma | OVCAR-5 ovarian | SF-539 CNS | TK-10 renal | MDA-MB-231 breast | MDA-N | HT29 colon | ACHN renal | EKVX NSCLC | K-562 leukemia | SK-MEL-28 melanoma | SF-268 CNS | SF-295 CNS | A498 renal | OVCAR-4 ovarian | BT-549 breast | NCI/ADR-RES ovarian | OVCAR-8 ovarian | HCT-15 colon | NCI-H460 lung | HCC-2998 colon | HCT-116 colon | SW-620 colon | MDA-MB-435 | 786-0 renal | SK-MEL-2 melanoma | OVCAR-3 ovarian | NCI-H522 lung | MOLT-4 leukemia | NCI-H226 lung | T-47D breast | U251 CNS | COLO 205 colon | DU-145 prostate | M14 melanoma | SNB-75 CNS | NCI-H23 lung | A549 NSCLC | UO-31 renal | MCF7 breast | PC-3 prostate | HS 578T breast | KM12 colon | RPMI-8226 leukemia | HL-60(TB) leukemia | SN12C renal | UACC-257 melanoma | SNB-19 CNS | LOX IMVI melanoma | SR leukemia | CCRF-CEM leukemia

Reference: PubChem BioAssay (NCI)
